Tests used:
[1] = ORAC assay, peroxyl radical absorbance capacity (ORACROO); settings: trolox equivalents; AAPH, 37 °C; ± % STDEV
Procedure: (§1) Automated Oxygen Radicals Absorbance Capacity (ORAC) Assay: ORAC was measured according to the method previously described. The method measures the antioxidant scavenging capacity for (a) peroxyl radicals generated by thermal decomposition of 2,2ʹ-azobis ([…]) dihydrochloride (AAPH; ORACROO assay); (b) hydroxyl radical (ORACOH assay), generated by H2O2-Cu^2+ (H2O2, 0.3%; Cu^2+ [as CuSO4], 18 μM, or (c) Cu^2+ [as CuSO4], 18 μM as a transition metal oxidant at 37 °C. ORAC values were expressed as micromoles of trolox equivalents (TE) per milligram of test sample, except when Cu^2+ (without H2O2) was used as an oxidant in the assay. In the presence of Cu^2+ without H2O2, test samples acted as prooxidants rather than antioxidants in the ORAC assay. The copper-initiated prooxidant activity was calculated using [(AreaBlank − AreaSample)/AreaBlank] × 100 and expressed as prooxidant units; one unit equals the prooxidant activity that reduces the area under the fluorescein decay curve by 1% in the ORAC assay.

[2] = ORAC assay, hydroxyl radical absorbance capacity (ORACOH); settings: trolox equivalents; H2O2 0.3%, Cu2+ 18 μM, 37 °C; ± % STDEV
Procedure: as §1

[3] = Copper-initiated prooxidant activity in the ORAC assay; settings: Cu2+ 18 μM without H2O2, 37 °C; one unit = 1% reduction of area under fluorescein decay curve
Procedure: as §1

[4] = Trolox equivalent absorbance capacity (TEAC) assay; settings: trolox equivalents; absorbance 734 nm, 25 °C
Procedure: Trolox Equivalent Absorbance Capacity (TEAC) Assay: The total antioxidant capacity of the test samples in terms of TEAC were measured using a previously described method. Absorbance was read at 734 nm at 25 °C in a plate reader and the results were expressed as μM trolox equivalents per milligram dry weight (μM TE/g DW) of the test samples.

[5] = Ferric-ion reducing antioxidant power (FRAP) assay; settings: ascorbic acid equivalents; absorbance 593 nm; ± % STDEV
Procedure: Ferric-Ion Reducing Antioxidant Power (FRAP) Assay: Working FRAP reagent was prepared in accordance to the method described previously. Absorbance was measured at 593 nm. L-ascorbic acid was used as a standard and the results were expressed as μM ascorbic acid equivalents per milligram dry weight (μM AAE/g DW) of the test samples.

mushroom tyrosinase = assay: Tyrosinase enzyme assay; type: biochemical; settings: L-Tyrosine substrate; samples screened at 100.00 μg/mL upper limit
Procedure: Tyrosinase Enzyme Assay: The tyrosinase inhibitory activity was measured using the spectrophotometric method previously described. Samples were dissolved in DMSO to a stock solution of 1 mg/mL, and further dilutions were then done with 50 mM sodium phosphate buffer (pH 6.5) for all working solutions. […] In the wells of a 96-well plate, 70 µL of each sample working solution was combined with 30 μL of tyrosinase (500 Units/mL in sodium phosphate buffer) in triplicate. After incubation at room temperature for 5 min, 110 μL of substrate (2 mM L-Tyrosine) was added to each well. Final concentrations of the crude extract, isolated compounds, and positive control ranged from 1.0–100 μg/mL. Incubation commenced for 30 min at room temperature and the enzyme activity was determined by measuring the absorbance at 490 nm. The percentage of tyrosinase inhibition was calculated as follows: Tyrosinase inhibition (%) = [(A − B) − (C − D)]/(A − B) × 100 (1) where A is the absorbance of the control with the enzyme, B is the absorbance of the control without the enzyme, C is the absorbance of the test sample with the enzyme and D is the absorbance of the test sample without the enzyme.

[6] = target: T1, elastase from porcine pancrease (Sus scrofa, UniProt P00772); assay: biochemical; settings: SANA substrate; samples screened at 100.00 μg/mL upper limit; read-out: Inhibitory Activities IC50, Elastase (converted)
T1 construct: from tissue; host or cells: porcine pancreas
T1 sequence (P00772 27-266): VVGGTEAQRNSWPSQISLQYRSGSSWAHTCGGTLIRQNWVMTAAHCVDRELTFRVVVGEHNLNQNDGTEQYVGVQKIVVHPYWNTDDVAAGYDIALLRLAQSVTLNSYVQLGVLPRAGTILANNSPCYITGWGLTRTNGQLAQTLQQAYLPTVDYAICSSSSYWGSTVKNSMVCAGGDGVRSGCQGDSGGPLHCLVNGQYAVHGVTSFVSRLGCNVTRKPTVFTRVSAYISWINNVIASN
Procedure: Elastase Inhibition Assay: Inhibition of elastase by the test samples was assayed using N-succyl-(Ala)-3-nitroanilide (SANA) as the substrate, monitoring the release of p-nitroanilide by the method described previously. The inhibitory activity determined the intensity of color released during cleavage of SANA by the action of elastase. Briefly, 1 mM SANA was prepared in 0.1 M Tris-HCl buffer pH 8.0 and 200 μL of this solution was added to the 20 μL of sample solution in a 96-Well plate. The mixtures were vortexed and preincubated for 10 min at 25 °C and then 20 μL of elastase from porcine pancrease (0.03 Units/mL) was added. The mixtures were further incubated for 10 min and the absorbance was measured at 410 nm. Methanol was used as control, while oleanolic acid used as a positive control.

[7] = target: Acetylcholinesterase (AChE) (Homo sapiens, UniProt P22303); assay: biochemical; settings: 500.00 μg/mL upper concentration limit; read-out: Inhibitory Activities IC50, Acetylcholinesterase (converted)
Sequence of Acetylcholinesterase (AChE) (P22303 32-614, species assumed): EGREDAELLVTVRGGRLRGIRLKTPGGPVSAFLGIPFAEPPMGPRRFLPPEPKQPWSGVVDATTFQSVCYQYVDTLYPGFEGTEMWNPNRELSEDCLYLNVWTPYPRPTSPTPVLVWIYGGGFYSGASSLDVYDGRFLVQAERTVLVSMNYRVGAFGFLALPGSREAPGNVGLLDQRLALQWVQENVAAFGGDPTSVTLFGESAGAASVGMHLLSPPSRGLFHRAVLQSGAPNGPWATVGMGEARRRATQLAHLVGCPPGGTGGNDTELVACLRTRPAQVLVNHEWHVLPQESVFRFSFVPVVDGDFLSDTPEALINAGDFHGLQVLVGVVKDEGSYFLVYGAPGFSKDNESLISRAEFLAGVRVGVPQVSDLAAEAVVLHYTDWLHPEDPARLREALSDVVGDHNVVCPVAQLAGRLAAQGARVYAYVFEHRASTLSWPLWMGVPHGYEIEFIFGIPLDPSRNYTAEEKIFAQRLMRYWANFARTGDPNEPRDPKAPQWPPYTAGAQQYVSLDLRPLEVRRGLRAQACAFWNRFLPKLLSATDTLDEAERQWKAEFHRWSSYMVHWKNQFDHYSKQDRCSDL
Procedure: Acetylcholinesterase Inhibition Assay: Acetylcholinesterase (AChE) inhibitory activity was measured using Ellman’s method as previously described with minor modifications. AChE catalysis the hydrolysis of acetythiocholine iodide (ACTI as substrate) to thiocholine, which can then react with Ellman’s reagent (DTNB) to produce 5-thio-2-nitrobenzoate (yellow color). In the presence of samples (inhibitors), the release of 5-thio-2-nitrobenzoate (yellow color) is reduced and it is monitored by measuring the absorbance at 450 nm.
In a 96-Well plate, the reaction mixture contains 50 µL of samples pre-incubated with 125 µL of 3 mM 5,5ʹ-Dithiobis-(2-nitrobenzoic acid), and 25 µL AChE (2.0 U/mL), in 50 mM tris-HCl buffer (pH 8.0), with 0.1% bovine serum albumin (BSA) for 15 minutes at 25 °C. Subsequently, 25 µL (15 mM) ACTI was added to the incubation mixture and further incubated for 10 min at 25 °C. […] Absorbance was recorded at 450 nm. The percent AChE inhibitory activity is given by: [A0 − (B − C)]/A0 × 100 (3) where A0 = full enzymatic reaction; B = Activity in the presence of sample; and C = Activity without sample.

Rat liver microsomes = settings: Fe2+-induced, TBARs, samples screened at 50.00 μg/mL, ± STDEV

Compound | Peroxyl (ORAC peroxyl radical absorbance capacity) [1] [µM TE/g] | Hydroxyl (ORACOH) [2] | Prooxidant (copper-initiated prooxidant activity) [3] [prooxidant units] | TEAC [4] [μM TE/g DW] | FRAP [5] [µMAAE/g] | Inhibitory Activities IC50, Tyrosinase (mushroom tyrosinase) [µg/mL] | IC50 [6] [µM] | IC50 [7] [µM] | Anti-Lipid peroxidation IC50 (Rat liver microsomes) [µg/mL]
CCC(C)C(=O)c1c(O)cc(O)c(CC=C(C)C)c1O (centres unmarked) [Compound 7, 1-(2-methylbutanone)-3-prenyl-phloroglucinol] | 14139.74 ± 5.96 | 23.12 ± 18.94 × 10^6 µMTE/g | 73.87 ± 1.10 | 9998.71 ± 2.66 | 1029.03 ± 0.66 | >100.00 | 240 | 936 | 27.49 ± 3.19
CC1(C)CC[C@]2(C)CC=C3[C@](C)(CCC4[C@@]5(C)CC[C@H](O)[C@](C)(CO)C5CC[C@@]34C)C2C1 (stereo partly drawn) [Compound 11, 3β-24-dihydroxyterexer-14-ene] | 1193.10 ± 1.68 | 0.89 ± 7.34 × 10^6 µMTE/g | 31.38 ± 7.00 | 1323.61 ± 1.76 | 197.99 ± 3.90 | >100.00 | > 226 | 707 | >50.00
CCC(C)C(=O)c1c(O)cc(OCC=C(C)C)cc1O (centres unmarked) [Compound 4, 1-(2-methylbutanone)-4-O-prenyl-phloroglucinol] | 5406.65 ± 1.39 | 3.92 ± 14.47 × 10^6 µMTE/g | 7.02 ± 4.02 | 1629.10 ± 2.03 | 194.27 ± 1.78 | >100.00 | 164 | 981 | 44.62 ± 2.08
CC(C)=CCc1c(O)cc(O)c(C(=O)C(C)C)c1O [Compound 9, 1-(2-methylpropanone)-3-prenylphloroglucinol] | 13639.27 ± 17.62 | 24.24 ± 1.71 × 10^6 µMTE/g | 69.54 ± 0.29 | 4423.32 ± 3.11 | 1096.01 ± 1.12 | >100.00 | 233 |  | 20.95 ± 2.62
CC(C)C(=O)c1c(O)cc(O)c2c1OC(C)(C)[C@@H](O)C2 [Compound 3, 8-(2-methyl-1-propanone)-3S,5,7-trihydroxyl-2,2-dimethylchromane] | 3937.78 ± 25.85 | 5.99 ± 4.52 × 10^6 µMTE/g | 41.73 ± 8.20 | 6001.40 ± 5.63 | 155.65 ± 12.02 | 80.31 ± 3.31 | 90.3 | 974 | >50.00
CC(=O)OC/C(C)=C/Cc1c(O)cc(O)c(C(=O)c2ccccc2)c1O [Compound 1, 1-benzoyl-3(3-methylbut-2-enylacetate)-phloroglucinol] |  | 64.85 ± 10.95 × 10^6 µMTE/g | 8.92 ± 1.15 | 19545.00 ± 10.25 | 2530.54 ± 0.92 | 35.63 ± 4.67 | > 281 | 752 | 5.12 ± 0.90
CC(=O)OC/C(C)=C/Cc1c(O)cc(O)c(C(=O)C(C)C)c1O [Compound 10, caespitate] | 16735.55 ± 21.72 | 16.26 ± 15.39 × 10^6 µMTE/g | 92.31 ± 1.59 | 8705.14 ± 1.83 | 1019.28 ± 1.79 | >100.00 | 182 | 777 | 20.50 ± 4.01
O=C(O[C@@H]1Cc2c(O)cc(O)cc2O[C@@H]1c1cc(O)c(O)c(O)c1)c1cc(O)c(O)c(O)c1 [EGCG, epigallocatechin gallate, reference compound] |  | 3.91 ± 4.65 × 10^6 µMTE/g | 6.48 ± 1.19 | 11545.44 ± 17.28 | 3326.45 ± 5.76 |  |  |  | 1.04 ± 1.02
C=C(C)[C@@H](O)Cc1c(O)cc(O)c(C(=O)c2ccccc2)c1O [Compound 2, 1-benzoyl-3(2S-hydroxyl-3-methylbut-3-enyl)-phloroglucinol] |  | 94.97 ± 5.88 × 10^6 µMTE/g | 756.90 ± 1.98 | 43615.73 ± 6.66 | 4950.08 ± 0.65 | 26.72 ± 5.05 | > 318 | 852 | 3.55 ± 1.92

Source: paper PMC6332446, “Acylphloroglucinol Derivatives from the South African Helichrysum niveum and Their Biological Activities” (Molecules, 2015)
